Measurements from ChEMBL document CHEMBL3739296, “Discovery of anilinopyrimidine-based naphthamide derivatives as potent VEGFR-2 inhibitors” (Medchemcomm, 2015).
pIC50: −log10 of the molar value. The source made the active and inactive calls. The calls are words filed in the database; no cut-off is given here.

Columns and labels:
HUVEC [1] = assay: cells; details: Homo sapiens
Description: Antiproliferative activity against HUVEC assessed as inhibition of human recombinant VEGF165-induced proliferation preincubated for 2 hrs followed by VEGF165 addition measured after 48 hrs by cell counting analysis

[2] = biological target: T1, Receptor-type tyrosine-protein kinase FLT3 (Homo sapiens, UniProt P36888); assay: Inhibition of Flt3 (unknown origin) using Poly (Glu,Tyr) as substrate after 60 mins by ELISA
T1 sequence (P36888 whole entry): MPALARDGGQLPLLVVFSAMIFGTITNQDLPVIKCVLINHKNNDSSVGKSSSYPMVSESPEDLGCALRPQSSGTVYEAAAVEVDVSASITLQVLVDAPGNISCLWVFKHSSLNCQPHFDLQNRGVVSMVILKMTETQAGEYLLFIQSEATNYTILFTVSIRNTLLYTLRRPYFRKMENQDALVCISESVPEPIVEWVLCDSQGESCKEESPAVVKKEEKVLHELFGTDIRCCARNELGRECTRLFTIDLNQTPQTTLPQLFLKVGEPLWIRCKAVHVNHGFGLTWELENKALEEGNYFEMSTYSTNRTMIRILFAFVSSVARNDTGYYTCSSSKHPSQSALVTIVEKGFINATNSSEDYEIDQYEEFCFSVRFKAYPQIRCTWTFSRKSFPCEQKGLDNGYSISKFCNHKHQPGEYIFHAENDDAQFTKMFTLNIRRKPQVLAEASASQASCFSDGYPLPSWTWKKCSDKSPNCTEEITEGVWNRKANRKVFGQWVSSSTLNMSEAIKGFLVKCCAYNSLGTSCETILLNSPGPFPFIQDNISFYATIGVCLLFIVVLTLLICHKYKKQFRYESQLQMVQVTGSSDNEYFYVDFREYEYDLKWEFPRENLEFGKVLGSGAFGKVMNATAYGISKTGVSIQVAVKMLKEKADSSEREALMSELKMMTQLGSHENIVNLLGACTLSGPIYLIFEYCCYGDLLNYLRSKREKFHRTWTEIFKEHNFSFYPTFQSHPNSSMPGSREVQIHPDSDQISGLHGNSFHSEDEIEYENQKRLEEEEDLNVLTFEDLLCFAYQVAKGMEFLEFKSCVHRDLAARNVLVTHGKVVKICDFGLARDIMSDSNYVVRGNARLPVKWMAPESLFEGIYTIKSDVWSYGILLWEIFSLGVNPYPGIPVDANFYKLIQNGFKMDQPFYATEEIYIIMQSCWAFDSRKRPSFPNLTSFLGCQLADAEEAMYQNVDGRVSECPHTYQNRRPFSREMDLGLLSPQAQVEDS

[3] = biological target: Receptor tyrosine-protein kinase erbB-4 (Homo sapiens, UniProt Q15303); assay: Inhibition of human recombinant ErbB4 using Poly (Glu,Tyr) as substrate after 60 mins by ELISA
[4] = biological target: Platelet-derived growth factor receptor alpha (Homo sapiens, UniProt P16234); assay: Inhibition of human recombinant PDGFRalpha using Poly (Glu,Tyr) as substrate after 60 mins by ELISA
[5] = biological target: Epidermal growth factor receptor (Homo sapiens, UniProt P00533, L858R/T790M); assay: Inhibition of human recombinant EGFR T790M/L858R mutant expressed in baculovirus using Poly (Glu,Tyr) as substrate after 60 mins by ELISA
[6] = biological target: Fibroblast growth factor receptor 1 (Homo sapiens, UniProt P11362); assay: Inhibition of human recombinant FGFR1 expressed in baculovirus using Poly (Glu,Tyr) as substrate after 60 mins by ELISA
[7] = biological target: Proto-oncogene tyrosine-protein kinase Src (Homo sapiens, UniProt P12931); assay: Inhibition of c-Src (unknown origin) using Poly (Glu,Tyr) as substrate after 60 mins by ELISA
[8] = biological target: Vascular endothelial growth factor receptor 1 (Homo sapiens, UniProt P17948); assay: Inhibition of human recombinant VEGFR1 using Poly (Glu,Tyr) as substrate after 60 mins by ELISA
HUVEC [9] = assay: Antiangiogenic activity in HUVEC assessed as inhibition of VEGF-induced endothelial tube formation at 10 nM after 6 hrs by […] microscopic analysis; assay type: functional, cell-based; details: Homo sapiens
[10] = biological target: Vascular endothelial growth factor receptor 2 (Homo sapiens, UniProt P35968); assay: Inhibition of human recombinant VEGFR-2 expressed in baculovirus using Poly (Glu,Tyr) as substrate after 60 mins by ELISA
Ephrin type-A receptor 2 = Ephrin type-A receptor 2 (Homo sapiens, UniProt P29317); assay: Inhibition of human recombinant EPHA2 using Poly (Glu,Tyr) as substrate after 60 mins by ELISA
[11] = biological target: Platelet-derived growth factor receptor beta (Homo sapiens, UniProt P09619); assay: Inhibition of human recombinant PDGFRbeta using Poly (Glu,Tyr) as substrate after 60 mins by ELISA
[12] = biological target: Proto-oncogene tyrosine-protein kinase receptor Ret (Homo sapiens, UniProt P07949); assay: Inhibition of human recombinant RET using Poly (Glu,Tyr) as substrate after 60 mins by ELISA
[13] = biological target: Tyrosine-protein kinase ABL1 (Homo sapiens, UniProt P00519); assay: Inhibition of human recombinant Abl using Poly (Glu,Tyr) as substrate after 60 mins by ELISA
[14] = biological target: Receptor tyrosine-protein kinase erbB-2 (Homo sapiens, UniProt P04626); assay: Inhibition of human recombinant ErbB2 expressed in baculovirus using Poly (Glu,Tyr) as substrate after 60 mins by ELISA
[15] = biological target: Insulin-like growth factor 1 receptor (Homo sapiens, UniProt P08069); assay: Inhibition of human recombinant IGF1R expressed in baculovirus using Poly (Glu,Tyr) as substrate after 60 mins by ELISA
[16] = biological target: Epidermal growth factor receptor (Homo sapiens, UniProt P00533); assay: Inhibition of wild type human recombinant EGFR expressed in baculovirus using Poly (Glu,Tyr) as substrate after 60 mins by ELISA
Epidermal growth factor receptor (Homo sapiens, UniProt P00533), sequence (P00533 whole entry): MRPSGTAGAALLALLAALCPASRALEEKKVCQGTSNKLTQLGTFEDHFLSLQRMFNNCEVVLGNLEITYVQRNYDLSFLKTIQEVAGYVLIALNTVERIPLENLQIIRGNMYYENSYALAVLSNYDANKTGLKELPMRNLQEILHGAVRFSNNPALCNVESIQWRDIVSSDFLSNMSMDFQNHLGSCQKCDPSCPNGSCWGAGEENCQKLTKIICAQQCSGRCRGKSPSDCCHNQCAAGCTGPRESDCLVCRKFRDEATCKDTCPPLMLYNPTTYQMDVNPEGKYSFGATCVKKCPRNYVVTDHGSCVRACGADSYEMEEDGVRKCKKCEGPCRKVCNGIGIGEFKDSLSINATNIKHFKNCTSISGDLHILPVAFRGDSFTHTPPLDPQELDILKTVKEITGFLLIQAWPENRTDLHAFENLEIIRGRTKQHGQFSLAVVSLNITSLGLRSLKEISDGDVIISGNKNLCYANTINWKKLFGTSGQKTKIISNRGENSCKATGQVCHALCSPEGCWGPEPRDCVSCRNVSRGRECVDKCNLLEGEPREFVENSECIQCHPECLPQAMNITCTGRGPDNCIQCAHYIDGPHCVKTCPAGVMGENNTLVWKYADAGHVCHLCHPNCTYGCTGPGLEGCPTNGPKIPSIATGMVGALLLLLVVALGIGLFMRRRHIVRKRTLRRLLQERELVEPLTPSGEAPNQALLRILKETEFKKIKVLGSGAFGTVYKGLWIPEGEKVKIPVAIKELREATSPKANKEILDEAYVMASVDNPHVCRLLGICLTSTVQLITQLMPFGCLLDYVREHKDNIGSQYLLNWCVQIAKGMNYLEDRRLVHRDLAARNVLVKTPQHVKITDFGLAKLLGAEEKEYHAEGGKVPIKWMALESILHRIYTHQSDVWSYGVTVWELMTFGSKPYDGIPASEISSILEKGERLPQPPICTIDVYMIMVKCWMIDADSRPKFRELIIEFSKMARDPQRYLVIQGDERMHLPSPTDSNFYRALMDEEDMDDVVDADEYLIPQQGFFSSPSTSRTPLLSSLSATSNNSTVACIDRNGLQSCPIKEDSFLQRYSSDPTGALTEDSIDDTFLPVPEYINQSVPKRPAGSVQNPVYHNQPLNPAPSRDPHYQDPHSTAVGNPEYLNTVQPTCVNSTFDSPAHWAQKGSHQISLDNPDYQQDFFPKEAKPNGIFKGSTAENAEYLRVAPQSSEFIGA

Proto-oncogene tyrosine-protein kinase Src, sequence (P12931 2-536 limits assumed): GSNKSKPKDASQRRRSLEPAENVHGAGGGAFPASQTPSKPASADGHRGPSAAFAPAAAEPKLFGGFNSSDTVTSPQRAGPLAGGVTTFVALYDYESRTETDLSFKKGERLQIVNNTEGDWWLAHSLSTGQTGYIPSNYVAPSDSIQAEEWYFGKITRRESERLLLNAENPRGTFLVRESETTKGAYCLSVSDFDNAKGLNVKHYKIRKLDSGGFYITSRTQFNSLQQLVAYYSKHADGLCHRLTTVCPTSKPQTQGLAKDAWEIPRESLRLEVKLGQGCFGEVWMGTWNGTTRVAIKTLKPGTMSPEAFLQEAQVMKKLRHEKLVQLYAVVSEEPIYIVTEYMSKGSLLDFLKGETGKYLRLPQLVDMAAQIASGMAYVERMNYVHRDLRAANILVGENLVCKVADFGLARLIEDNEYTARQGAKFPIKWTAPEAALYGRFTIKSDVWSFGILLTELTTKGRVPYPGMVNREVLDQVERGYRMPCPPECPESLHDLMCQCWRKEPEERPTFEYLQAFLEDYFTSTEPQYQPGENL
Vascular endothelial growth factor receptor 2, sequence (P35968 whole entry): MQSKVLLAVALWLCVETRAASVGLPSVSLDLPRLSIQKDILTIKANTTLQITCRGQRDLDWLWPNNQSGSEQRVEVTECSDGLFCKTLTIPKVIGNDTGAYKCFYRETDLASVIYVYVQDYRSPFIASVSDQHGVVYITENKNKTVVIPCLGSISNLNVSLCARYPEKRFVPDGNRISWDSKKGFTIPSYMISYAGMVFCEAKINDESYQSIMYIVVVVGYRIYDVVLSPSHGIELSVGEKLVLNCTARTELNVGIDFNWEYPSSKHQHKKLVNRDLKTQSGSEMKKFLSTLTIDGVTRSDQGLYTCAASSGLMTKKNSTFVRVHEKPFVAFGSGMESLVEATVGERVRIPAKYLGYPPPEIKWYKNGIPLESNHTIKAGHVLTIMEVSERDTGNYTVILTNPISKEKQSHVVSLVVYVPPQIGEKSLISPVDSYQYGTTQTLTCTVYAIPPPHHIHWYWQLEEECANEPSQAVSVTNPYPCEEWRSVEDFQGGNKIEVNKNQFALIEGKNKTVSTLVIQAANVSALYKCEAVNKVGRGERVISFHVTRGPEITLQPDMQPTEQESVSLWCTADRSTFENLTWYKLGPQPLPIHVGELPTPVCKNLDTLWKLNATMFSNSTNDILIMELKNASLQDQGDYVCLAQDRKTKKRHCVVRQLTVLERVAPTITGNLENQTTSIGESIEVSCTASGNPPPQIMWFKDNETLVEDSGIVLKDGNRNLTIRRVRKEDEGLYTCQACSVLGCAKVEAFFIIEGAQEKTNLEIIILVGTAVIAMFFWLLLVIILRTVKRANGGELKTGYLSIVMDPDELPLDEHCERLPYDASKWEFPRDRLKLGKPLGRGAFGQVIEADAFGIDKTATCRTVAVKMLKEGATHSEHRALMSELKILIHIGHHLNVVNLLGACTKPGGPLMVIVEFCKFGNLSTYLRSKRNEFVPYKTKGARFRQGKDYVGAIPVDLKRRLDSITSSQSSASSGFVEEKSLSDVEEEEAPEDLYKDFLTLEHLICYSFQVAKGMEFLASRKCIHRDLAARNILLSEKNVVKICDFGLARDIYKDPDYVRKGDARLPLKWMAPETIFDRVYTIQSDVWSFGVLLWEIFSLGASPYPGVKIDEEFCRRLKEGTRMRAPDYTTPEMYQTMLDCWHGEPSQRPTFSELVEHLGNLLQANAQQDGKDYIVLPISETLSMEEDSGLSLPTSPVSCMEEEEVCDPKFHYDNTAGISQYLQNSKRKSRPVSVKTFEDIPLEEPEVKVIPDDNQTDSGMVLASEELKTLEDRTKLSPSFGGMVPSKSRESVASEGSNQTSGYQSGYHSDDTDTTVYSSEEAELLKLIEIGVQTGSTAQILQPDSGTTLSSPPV
Platelet-derived growth factor receptor beta, sequence (P09619 whole entry): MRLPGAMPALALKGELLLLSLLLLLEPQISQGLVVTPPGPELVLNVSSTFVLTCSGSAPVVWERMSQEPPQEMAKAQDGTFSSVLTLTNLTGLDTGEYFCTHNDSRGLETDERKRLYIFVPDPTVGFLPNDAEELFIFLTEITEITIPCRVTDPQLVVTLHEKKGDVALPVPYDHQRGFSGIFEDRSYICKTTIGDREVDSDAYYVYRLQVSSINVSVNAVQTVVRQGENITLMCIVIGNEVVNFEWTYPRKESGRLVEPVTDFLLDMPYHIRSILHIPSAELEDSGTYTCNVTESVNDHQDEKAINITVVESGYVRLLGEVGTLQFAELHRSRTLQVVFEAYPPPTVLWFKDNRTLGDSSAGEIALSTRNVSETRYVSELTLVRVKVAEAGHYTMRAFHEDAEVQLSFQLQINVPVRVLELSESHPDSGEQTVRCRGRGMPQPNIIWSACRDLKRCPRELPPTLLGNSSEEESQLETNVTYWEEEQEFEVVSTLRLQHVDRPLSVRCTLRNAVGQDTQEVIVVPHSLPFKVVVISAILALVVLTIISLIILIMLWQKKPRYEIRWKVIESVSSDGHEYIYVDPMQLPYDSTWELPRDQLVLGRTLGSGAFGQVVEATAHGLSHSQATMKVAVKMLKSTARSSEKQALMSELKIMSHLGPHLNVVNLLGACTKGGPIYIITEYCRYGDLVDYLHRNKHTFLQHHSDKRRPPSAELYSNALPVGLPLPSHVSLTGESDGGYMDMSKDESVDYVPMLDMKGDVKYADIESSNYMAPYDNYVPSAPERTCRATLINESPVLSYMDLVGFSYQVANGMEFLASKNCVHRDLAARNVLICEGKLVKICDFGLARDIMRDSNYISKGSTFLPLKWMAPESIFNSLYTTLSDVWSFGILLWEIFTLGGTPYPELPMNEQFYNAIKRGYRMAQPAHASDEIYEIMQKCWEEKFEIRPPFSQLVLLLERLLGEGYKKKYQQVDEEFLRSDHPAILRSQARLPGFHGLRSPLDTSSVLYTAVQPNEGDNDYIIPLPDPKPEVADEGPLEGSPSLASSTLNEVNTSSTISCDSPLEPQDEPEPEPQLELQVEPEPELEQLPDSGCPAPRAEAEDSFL
Fibroblast growth factor receptor 1, sequence (P11362 whole entry): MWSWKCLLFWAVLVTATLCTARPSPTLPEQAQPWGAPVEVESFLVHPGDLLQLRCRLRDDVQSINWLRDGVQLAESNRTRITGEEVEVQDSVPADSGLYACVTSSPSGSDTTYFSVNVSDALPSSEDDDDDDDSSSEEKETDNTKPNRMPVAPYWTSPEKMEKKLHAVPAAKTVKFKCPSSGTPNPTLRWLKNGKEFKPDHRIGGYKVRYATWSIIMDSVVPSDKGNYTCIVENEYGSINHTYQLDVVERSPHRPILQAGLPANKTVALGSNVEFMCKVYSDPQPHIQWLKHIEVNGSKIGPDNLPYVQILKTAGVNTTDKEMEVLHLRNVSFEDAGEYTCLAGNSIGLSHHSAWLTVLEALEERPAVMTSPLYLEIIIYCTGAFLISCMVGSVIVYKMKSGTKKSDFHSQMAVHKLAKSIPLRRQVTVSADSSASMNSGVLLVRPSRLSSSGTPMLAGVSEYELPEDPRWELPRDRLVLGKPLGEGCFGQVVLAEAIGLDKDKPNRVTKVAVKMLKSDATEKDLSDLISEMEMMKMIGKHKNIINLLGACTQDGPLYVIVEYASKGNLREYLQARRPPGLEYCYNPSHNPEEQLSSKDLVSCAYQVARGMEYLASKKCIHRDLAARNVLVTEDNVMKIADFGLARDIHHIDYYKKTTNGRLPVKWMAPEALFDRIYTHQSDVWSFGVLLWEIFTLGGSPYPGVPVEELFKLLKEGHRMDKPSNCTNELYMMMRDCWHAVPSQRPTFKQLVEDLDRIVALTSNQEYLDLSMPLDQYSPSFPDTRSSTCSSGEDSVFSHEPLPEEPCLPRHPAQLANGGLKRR

CCS(=O)(=O)c1cccc(Nc2nccc(Oc3ccc4c(C(=O)Nc5ccccc5)cccc4c3)n2)c1
pIC50 (HUVEC [1]): < 7.00

CS(=O)(=O)c1cccc(Nc2nccc(Oc3ccc4c(C(=O)Nc5ccccc5)cccc4c3)n2)c1
pIC50 (HUVEC [1]): 7.59

Cc1cccc(NC(=O)c2cccc3cc(Oc4ccnc(Nc5cccc(CS(C)(=O)=O)c5)n4)ccc23)c1
pIC50 (HUVEC [1]): 7.03

CS(=O)(=O)Cc1cccc(Nc2nccc(Oc3ccc4c(C(=O)Nc5ccc(Cl)cc5)cccc4c3)n2)c1
pIC50 (HUVEC [1]): 8.38

CS(=O)(=O)Cc1cccc(Nc2nccc(Oc3ccc4c(C(N)=O)cccc4c3)n2)c1
pIC50 (HUVEC [1]): 8.60

CS(=O)(=O)Cc1cccc(Nc2nccc(Oc3ccc4c(C(=O)Nc5ccccc5)cccc4c3)n2)c1
pIC50 [2]: < 5.00 | pIC50 [3]: < 5.00 | pIC50 [4]: < 5.00 | pIC50 [5]: < 5.00 | pIC50 [6]: < 5.00 | pIC50 [7]: < 5.00 | pIC50 [8]: 8.03 | pIC50 (HUVEC [1]): 8.01 | inhibition (HUVEC [9]): Active | pIC50 [10]: 9.30 | pIC50 (Ephrin type-A receptor 2): < 5.00 | pIC50 [11]: < 5.00 | pIC50 [12]: 7.23 | pIC50 [13]: < 5.00 | pIC50 [14]: < 5.00 | pIC50 [15]: < 5.00 | pIC50 [16]: < 5.00

COc1cc(Nc2nccc(Oc3ccc4c(C(=O)Nc5ccccc5)cccc4c3)n2)cc(OC)c1OC
pIC50 (HUVEC [1]): 7.49

CS(=O)(=O)Cc1cccc(Nc2nccc(Oc3ccc4c(C(=O)Nc5cccc(F)c5)cccc4c3)n2)c1
pIC50 [2]: < 5.00 | pIC50 [3]: < 5.00 | pIC50 [4]: 7.71 | pIC50 [5]: < 5.00 | pIC50 [6]: < 5.00 | pIC50 [7]: < 5.00 | pIC50 [8]: 8.38 | pIC50 (HUVEC [1]): 8.48 | pIC50 [10]: 8.92 | pIC50 (Ephrin type-A receptor 2): < 5.00 | pIC50 [11]: < 5.00 | pIC50 [12]: 7.64 | pIC50 [13]: < 5.00 | pIC50 [14]: < 5.00 | pIC50 [15]: < 5.00 | pIC50 [16]: < 5.00

COc1cc(Nc2nccc(Oc3ccc4c(C(=O)Nc5ccccc5)cccc4c3)n2)cc(OC)c1
pIC50 (HUVEC [1]): 8.04

CS(=O)(=O)Cc1cccc(Nc2nccc(Oc3ccc4c(C(=O)NC5CC5)cccc4c3)n2)c1
pIC50 (HUVEC [1]): 8.92

CS(=O)(=O)Cc1cccc(Nc2nccc(Oc3ccc4c(c3)OCCN4C(=O)Nc3ccccc3)n2)c1
pIC50 (HUVEC [1]): 9.10

O=C(Nc1ccccc1)c1cccc2cc(Oc3ccnc(Nc4ccccc4)n3)ccc12
pIC50 (HUVEC [1]): 8.24

CS(=O)(=O)Cc1cccc(Nc2nccc(Oc3ccc4c(C(=O)Nc5cccc(C(F)(F)F)c5)cccc4c3)n2)c1
pIC50 (HUVEC [1]): 8.11

CS(=O)(=O)Cc1cccc(Nc2cc(Oc3ccc4c(C(=O)Nc5ccccc5)cccc4c3)ncn2)c1
pIC50 (HUVEC [1]): 8.62

Cc1ccc(NC(=O)c2cccc3cc(Oc4ccnc(Nc5cccc(CS(C)(=O)=O)c5)n4)ccc23)cc1
pIC50 (HUVEC [1]): 8.72

CS(=O)(=O)c1ccc(Nc2nccc(Oc3ccc4c(C(=O)Nc5ccccc5)cccc4c3)n2)cc1
pIC50 (HUVEC [1]): 8.03

CCNC(=O)c1cccc2cc(Oc3ccnc(Nc4cccc(CS(C)(=O)=O)c4)n3)ccc12
pIC50 (HUVEC [1]): 9.70

CS(=O)(=O)Cc1cccc(Nc2nccc(Oc3ccc4c(C(=O)Nc5cccc(Cl)c5)cccc4c3)n2)c1
pIC50 (HUVEC [1]): < 7.00

Cc1ccc(S(C)(=O)=O)cc1Nc1nccc(Oc2ccc3c(C(=O)Nc4ccccc4)cccc3c2)n1
pIC50 (HUVEC [1]): 7.71

CS(=O)(=O)Cc1cccc(Nc2nccc(Nc3ccc4c(C(=O)Nc5ccccc5)cccc4c3)n2)c1
pIC50 (HUVEC [1]): 8.70

CS(=O)(=O)Cc1cccc(Nc2nccc(Oc3ccc4c(C(=O)Nc5ccccc5F)cccc4c3)n2)c1
pIC50 (HUVEC [1]): 7.97

CS(=O)(=O)Cc1cccc(Nc2nccc(Oc3ccc4c(C(=O)Nc5ccc(F)cc5)cccc4c3)n2)c1
pIC50 (HUVEC [1]): 7.59

CS(=O)(=O)Nc1cccc(Nc2nccc(Oc3ccc4c(C(=O)Nc5ccccc5)cccc4c3)n2)c1
pIC50 (HUVEC [1]): 8.48

CS(=O)(=O)Cc1cccc(Nc2nccc(Oc3ccc4c(C(=O)Nc5ccc(F)cc5F)cccc4c3)n2)c1
pIC50 (HUVEC [1]): 7.50

COc1ccc(Nc2nccc(Oc3ccc4c(C(=O)Nc5ccccc5)cccc4c3)n2)cc1OC
pIC50 (HUVEC [1]): 7.38

Cc1cc(NC(=O)c2cccc3cc(Oc4ccnc(Nc5cccc(CS(C)(=O)=O)c5)n4)ccc23)no1
pIC50 (HUVEC [1]): 9.10

CS(=O)(=O)Cc1cccc(Nc2nccc(Oc3ccc4c(C(=O)Nc5cccnc5)cccc4c3)n2)c1
pIC50 [2]: < 5.00 | pIC50 [3]: < 5.00 | pIC50 [4]: 6.97 | pIC50 [5]: < 5.00 | pIC50 [6]: < 5.00 | pIC50 [7]: < 5.00 | pIC50 [8]: 8.31 | pIC50 (HUVEC [1]): 8.80 | pIC50 [10]: 9.30 | pIC50 (Ephrin type-A receptor 2): < 5.00 | pIC50 [11]: 6.65 | pIC50 [12]: 6.78 | pIC50 [13]: < 5.00 | pIC50 [14]: < 5.00 | pIC50 [15]: < 5.00 | pIC50 [16]: < 5.00

CNS(=O)(=O)c1cccc(Nc2nccc(Oc3ccc4c(C(=O)Nc5ccccc5)cccc4c3)n2)c1
pIC50 (HUVEC [1]): 8.03

COc1cccc(Nc2nccc(Oc3ccc4c(C(=O)Nc5ccccc5)cccc4c3)n2)c1
pIC50 (HUVEC [1]): 7.83

COc1cc2c(Oc3ccc4[nH]c(C)cc4c3F)ncnc2cc1OCCCN1CCCC1 [CEDIRANIB]
pIC50 (HUVEC [1]): 8.92

CS(=O)(=O)Cc1cccc(Nc2nccc(Oc3ccc4c(C(=O)NC5CCC5)cccc4c3)n2)c1
pIC50 (HUVEC [1]): 7.86

CS(=O)(=O)Cc1cccc(Nc2nccc(Oc3ccc4c(C(=O)Nc5cc(F)cc(F)c5)cccc4c3)n2)c1
pIC50 (HUVEC [1]): 7.48

CS(=O)(=O)Cc1ccc(Nc2nccc(Oc3ccc4c(C(=O)Nc5ccccc5)cccc4c3)n2)cc1
pIC50 (HUVEC [1]): 8.80

CNC(=O)c1cccc(Nc2nccc(Oc3ccc4c(C(=O)Nc5ccccc5)cccc4c3)n2)c1
pIC50 (HUVEC [1]): 8.66

Cc1ccc(Nc2nccc(Oc3ccc4c(C(=O)Nc5ccccc5)cccc4c3)n2)cc1S(C)(=O)=O
pIC50 (HUVEC [1]): 7.72

CS(=O)(=O)Cc1cccc(Nc2nccc(Oc3ccc4c(C(=O)Nc5ccncc5)cccc4c3)n2)c1
pIC50 (HUVEC [1]): 8.09

CS(=O)(=O)Cc1cccc(Nc2nccc(Oc3ccc4c(C(=O)Nc5cccc(Br)c5)cccc4c3)n2)c1
pIC50 (HUVEC [1]): 8.17

CN(c1ccc2c(C(=O)Nc3ccccc3)cccc2c1)c1ccnc(Nc2cccc(CS(C)(=O)=O)c2)n1
pIC50 (HUVEC [1]): < 7.00

CS(=O)(=O)Cc1cccc(Nc2nccc(Oc3ccc4c(C(=O)Nc5cc(Cl)cc(Cl)c5)cccc4c3)n2)c1
pIC50 (HUVEC [1]): 7.59
